Assay results from patent US8389565B2, “Glycosidase inhibitors and methods of synthesizing same” (Simon Fraser University, priority 2000, dated 2013).
Where a name gives a salt, the structure may show the parent alone. Read-outs that look alike come from different tables or passages of the source.

Key:
[1] = target: T1, glucoamylase G2 form from Aspergillus niger (Aspergillus niger, UniProt P69328); experiment: Inhibition of glucoamylase G2-catalyzed hydrolysis of maltose; type: biochemical
T1 construct: purchased Novo Nordisk, Bagsvaerd, Denmark
Protocol: The glucoamylase G2 form from Aspergillus niger was purified from a commercial enzyme (Novo Nordisk, Bagsvaerd, Denmark) as described.^19,20 The initial rates of glucoamylase G2-catalyzed hydrolysis of maltose was tested with 1 mM maltose as substrate in 0.1 M sodium acetate pH 4.5 at 45° C. using an enzyme concentration of 7.0×10^−8 M and five inhibitor concentrations in the range 1 μm-5 mM. The effect of the inhibition on rates of substrate hydrolysis were compared for the different compounds.

[2] = target: T2, porcine pancreatic α-amylase (PPA) (Sus scrofa, UniProt P00690); experiment: Inhibition of porcine pancreatic α-amylase activity towards DP17 amylose; type: biochemical
T2 construct: purchased Sigma
T2 sequence (P00690 16-511): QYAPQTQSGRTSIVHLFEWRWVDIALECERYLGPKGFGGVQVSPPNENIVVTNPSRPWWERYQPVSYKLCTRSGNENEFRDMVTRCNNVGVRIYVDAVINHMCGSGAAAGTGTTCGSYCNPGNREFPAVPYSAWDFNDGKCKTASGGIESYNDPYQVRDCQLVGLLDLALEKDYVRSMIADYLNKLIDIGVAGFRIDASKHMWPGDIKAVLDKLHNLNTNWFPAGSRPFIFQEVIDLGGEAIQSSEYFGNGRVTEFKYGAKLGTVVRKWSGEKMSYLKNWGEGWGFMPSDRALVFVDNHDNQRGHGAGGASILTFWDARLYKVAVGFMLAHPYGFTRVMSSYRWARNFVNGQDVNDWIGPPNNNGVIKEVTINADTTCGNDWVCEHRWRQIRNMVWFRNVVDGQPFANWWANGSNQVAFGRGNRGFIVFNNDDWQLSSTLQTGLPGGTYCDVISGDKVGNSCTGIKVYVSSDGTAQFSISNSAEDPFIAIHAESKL
From the text: (§1) Porcine pancreatic α-amylase (PPA) and bovine serum albumin (BSA) were purchased from Sigma. Amylose EX-1 (DP17; average degree of polymerization 17) was purchased from Hayashibara Chemical Laboratories (Okayama, Japan). Recombinant barley α-amylase isozyme 1 (AMY1) was produced and purified as described.^23 An aliquot of the porcine pancreatic x-amylase (PPA) crystalline suspension (in ammonium sulfate) was dialyzed extensively against the assay buffer without BSA. The enzyme concentration was determined by aid of amino acid analysis as determined using an LKB model Alpha Plus amino acid analyzer. […] Six different final inhibitor concentrations were used in the range 1 μM-5 mM. The inhibitor was pre-incubated with enzyme for 5 min at 37° C. before addition of substrate.

[3] = target: T3, Recombinant barley α-amylase isozyme 1 (AMY1) (Hordeum vulgare, UniProt P00693); experiment: Inhibition of barley α-amylase isozyme 1 activity towards DP17 amylose; type: biochemical
T3 construct: made in house
From the text: as §1

[4] = target: T4, Maltase Glucoamylase (MGA) (Homo sapiens, UniProt O43451); experiment: MGA activity in extracts of COS cells transfected with MGA5′ (maltase subunit) construct, maltose hydrolysis, glucose oxidase colorimetric assay; type: biochemical; set-up: COS cells transfected with MGA5′ (maltase subunit clone 10) construct were used; expressed in transfected cells; host or cells: COS cells
Protocol: In the assays, COS cells transfected with MGA5′ (maltase subunit clone 10) construct were used. Activity measurements were performed with cell extracts containing MGA. Maltose hydrolysis was monitored by measurement of the glucose released by a glucose oxidase colorimetric assay. Inhibition of this hydrolysis was measured as a reduction in OD reading.
In practice, an OD reading in the absence of the inhibitor was recorded, followed by a reading in the presence of the inhibitor. The percent reduction in OD reading upon administering a candidate inhibitor (see Table 11) was then correlated with a percent inhibition for a given concentration.
Target sequence in this assay (O43451 356-737 limits assumed): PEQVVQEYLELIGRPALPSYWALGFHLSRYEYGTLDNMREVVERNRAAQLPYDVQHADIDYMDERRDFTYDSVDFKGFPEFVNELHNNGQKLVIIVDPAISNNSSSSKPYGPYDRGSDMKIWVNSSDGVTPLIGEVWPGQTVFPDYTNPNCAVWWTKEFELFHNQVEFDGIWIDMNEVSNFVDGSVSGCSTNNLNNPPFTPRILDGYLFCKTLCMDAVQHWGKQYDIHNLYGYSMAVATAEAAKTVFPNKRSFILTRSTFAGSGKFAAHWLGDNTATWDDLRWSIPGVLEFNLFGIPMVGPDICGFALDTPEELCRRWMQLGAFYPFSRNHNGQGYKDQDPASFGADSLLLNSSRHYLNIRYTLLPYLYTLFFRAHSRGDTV

[5] = target: T4, Maltase Glucoamylase (MGA); experiment: Inhibition of recombinant human maltase glucoamylase (MGA), maltose substrate, glucose oxidase readout; type: biochemical; details: for IC50: read-out: IC50 value against recombinant human MGA; for Ki: maltose substrate, 100 mM MES buffer pH 6.5, 37° C., read-out: Ki value against recombinant human maltase glucoamylase (MGA)
Protocol: Enzyme Activity Assay. Analysis of MGA inhibition was performed using maltose as the substrate, and measuring the release of glucose. Reactions were carried out in 100 mM MES buffer pH 6.5 at 37° C. for 15 min. The reaction was stopped by boiling for 3 min. 20 μL aliquots were taken and added to […] of glucose oxidase assay reagent (Sigma) in a 96-well plate. Reactions were developed for 1 hour and absorbance was measured at 450 nm to determine the amount of glucose produced by MGA activity in the reaction. One unit of activity is defined as the hydrolysis of one […] of maltose per minute. All reactions were performed in triplicate and absorbance measurements were averaged to give a final result.
The program GraFit 4.0.14 was used to fit the data to the Michaelis-Menten equation and estimate the kinetic parameters, Km and Vmax, of the enzyme. Ki values for each inhibitor were determined by measuring the rate of maltose hydrolysis by MGA at varying inhibitor concentrations. Data were plotted in Lineweaver-Burk plots (1/rate vs. 1/[substrate]) and Ki values were determined by the equation Ki=Km[I]/(Vmax)m−Km, where “m” is the slope of the line. The Ki reported for each inhibitor was estimated by averaging the Ki values obtained from each of the different inhibitor concentrations.
Target sequence in this assay (O43451 87-954 limits assumed): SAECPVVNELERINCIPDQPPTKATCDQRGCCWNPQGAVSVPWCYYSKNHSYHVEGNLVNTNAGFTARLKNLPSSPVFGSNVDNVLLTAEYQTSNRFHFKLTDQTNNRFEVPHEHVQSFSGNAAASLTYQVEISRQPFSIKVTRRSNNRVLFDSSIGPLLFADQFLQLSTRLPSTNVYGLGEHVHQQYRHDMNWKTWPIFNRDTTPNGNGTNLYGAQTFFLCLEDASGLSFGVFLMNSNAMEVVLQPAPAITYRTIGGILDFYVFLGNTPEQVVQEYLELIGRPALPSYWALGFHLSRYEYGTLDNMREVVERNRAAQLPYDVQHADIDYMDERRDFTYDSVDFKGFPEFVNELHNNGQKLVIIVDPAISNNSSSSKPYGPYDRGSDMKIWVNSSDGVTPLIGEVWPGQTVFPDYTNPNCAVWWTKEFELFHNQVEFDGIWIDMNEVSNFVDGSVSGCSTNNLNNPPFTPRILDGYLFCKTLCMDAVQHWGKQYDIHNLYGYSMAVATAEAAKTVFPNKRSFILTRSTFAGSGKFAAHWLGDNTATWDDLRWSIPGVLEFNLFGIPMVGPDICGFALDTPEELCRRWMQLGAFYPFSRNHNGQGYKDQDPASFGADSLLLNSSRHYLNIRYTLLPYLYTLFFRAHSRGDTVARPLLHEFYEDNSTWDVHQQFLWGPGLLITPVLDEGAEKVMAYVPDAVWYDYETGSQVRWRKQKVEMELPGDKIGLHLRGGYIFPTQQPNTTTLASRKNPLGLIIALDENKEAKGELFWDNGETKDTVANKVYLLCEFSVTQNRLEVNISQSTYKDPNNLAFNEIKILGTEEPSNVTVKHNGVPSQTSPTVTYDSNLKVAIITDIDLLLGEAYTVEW

Sprague-Dawley rats = experiment: In vivo maltose gavage in catheterized rats: plasma glucose and insulin; set-up: species or system rat; details: maltose gavage 1000 mg/kg with 25 mg/kg drug
Protocol: Five week old Sprague-Dawley rats were housed singly under a 12:12-h light-dark photoperiod and given free access to water and rat chow (Purina rodent chow). After one week of acclimation, chronic indwelling catheters were implanted.
Animals were anesthetized with a combination of Ketamine-Xylazine-Butorphanol (0.1 ml/100 g im). Analgesic (Butorphenol, 1 mg/kg sc) was administered following recovery from anesthesia and the following morning. Antibiotic was administered by one dose sc and in the drinking water for 4 days post-operative (Baytril, 5 mg/kg sc, Bayer, Toronto, Canada; Baytril, 50 mg/ml: 0.36 ml solution in 250 ml drinking water). A sterile catheter (Intramedic PE-50 with ˜3 cm beveled Silastic tip) was placed in the left carotid artery and the distal end of the catheter was tunneled subcutaneously, exteriorized, and anchored at the nape of the neck. The catheters were protected from chewing by a stainless steel tether connected to a swivel system which allowed free movement of the animal and easy access to the catheter by the investigator.
The animals were allowed to recover for 1 week. Experiments were performed on conscious, unrestrained animals that had been fasted overnight by removal of chow from the cage hoppers at 2100. At 0800 the following morning animals were weighed and Atropine (0.05 mg/kg sc) was administered as a […]. At baseline, animals were administered a bolus of maltose by oral gavage (1000 mg/kg body weight) with or without drug (25 mg/kg body weight for all agents). Blood samples (0.1 mL) were taken via the implanted carotid line at -15 and -5 min for the baseline and at 7, 15, 30, 60, 90, 120, 210, 300 min.
Blood samples were kept on ice in microcentrifuge tubes and then were centrifuged. The plasma was stored at −20° C. until it was assayed. Plasma volume was triple replaced with heparinized saline (10u/mL), but red blood cells were not reinfused. Plasma glucose was assayed with the glucose oxidase method (Trinder RAICHEM Division of Hemagen Diagnostics, Inc. San Diego, Calif.). Plasma insulin concentrations were measured by rat insulin ELISA (Crystal Chem INC, Downers Grove, Ill.). Six experiments were performed for each treatment (control, Blintol, Acarbose, Salacinol).
All data are presented as means±SE. The significance of changes in plasma glucose and insulin were tested by two-way repeated-measures analysis of variance and were performed with the Statistical Analysis System for Windows (version 6.3, SAS Institute, Cary, N.C.). AUCs were compared using unpaired t-tests.

[6] = read-out: Ki PPA (Porcine pancreatic α-amylase)
[7] = read-out: Ki AMY1 (Barley α-amylase)

T3 sequence (P00693 25-438): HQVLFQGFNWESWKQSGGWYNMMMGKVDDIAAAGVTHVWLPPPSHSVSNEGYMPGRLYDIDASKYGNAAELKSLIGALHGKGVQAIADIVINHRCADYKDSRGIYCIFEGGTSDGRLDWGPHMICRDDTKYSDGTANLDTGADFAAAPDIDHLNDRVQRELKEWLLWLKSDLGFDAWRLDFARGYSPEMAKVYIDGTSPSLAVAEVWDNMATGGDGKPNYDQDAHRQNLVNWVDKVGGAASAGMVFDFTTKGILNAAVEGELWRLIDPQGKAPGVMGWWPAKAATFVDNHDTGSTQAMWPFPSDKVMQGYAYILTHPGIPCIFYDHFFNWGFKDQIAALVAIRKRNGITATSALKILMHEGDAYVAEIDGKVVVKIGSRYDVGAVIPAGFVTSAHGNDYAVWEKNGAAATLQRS
T1 sequence (P69328 other isoform, or with tags, fused parts or gaps): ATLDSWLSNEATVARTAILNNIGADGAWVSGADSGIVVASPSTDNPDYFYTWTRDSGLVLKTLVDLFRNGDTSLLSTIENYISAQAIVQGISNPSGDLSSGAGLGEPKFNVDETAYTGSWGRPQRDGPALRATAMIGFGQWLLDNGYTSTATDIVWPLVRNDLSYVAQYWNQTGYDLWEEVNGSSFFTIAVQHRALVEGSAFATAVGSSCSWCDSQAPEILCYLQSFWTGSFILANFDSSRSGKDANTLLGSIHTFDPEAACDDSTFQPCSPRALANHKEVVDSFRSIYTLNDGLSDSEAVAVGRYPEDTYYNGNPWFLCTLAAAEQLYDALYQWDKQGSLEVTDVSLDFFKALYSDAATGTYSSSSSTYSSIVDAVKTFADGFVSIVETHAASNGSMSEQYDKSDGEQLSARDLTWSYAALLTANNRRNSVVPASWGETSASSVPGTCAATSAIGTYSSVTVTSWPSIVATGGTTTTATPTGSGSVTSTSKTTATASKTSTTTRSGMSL

O=S(=O)(O)O[C@@H](CO)[C@H](O)CN1C[C@@H](O)[C@H](O)[C@H]1CO
Ki ([1]; read-out: Ki GA (Glucoamylase)): > 2500 µM
Ki [2, 6]: > 5000 µM
Ki [3, 7]: > 5000 µM
Ki MGA (Human intestinal maltase glucoamylase) ([4]; only the order of magnitude of activity (nM, μM, mM) or n.a. = not active): mM

O=S(=O)([O-])O[C@@H](CO)[C@H](O)C[S@+]1C[C@H](O)[C@H](O)[C@H]1CO [Compound 234, 1,4-Dideoxy-1,4-[[(2S,3S)-2,4-dihydroxy-3-(sulfooxy)butyl]-(R)-episulfoniumylidene]-D-ribitol Inner Salt]
inhibitory activity against recombinant human MGA (in words) [5]: not effective inhibitors

O=S(=O)(O)O[C@@H](CO)[C@H](O)CN1C[C@H](O)[C@@H](O)[C@H]1CO
Ki ([1]; read-out: Ki GA (Glucoamylase)): > 30000 µM
Ki [2, 6]: > 5000 µM
Ki [3, 7]: > 5000 µM

O=S(=O)([O-])O[C@@H](CO)[C@H](O)C[S@+]1C[C@H](O)[C@@H](O)[C@H]1CO
Ki [1]: > 5000 µM
Ki [2, 6]: 52 µM
Ki [3, 7]: 109 µM

O=S(=O)(O)OC(C(O)CN1CC(O)C(O)C1CO)C(O)C(O)CO (single isomer, unassigned) [Compound 252]
IC50 [5]: 100 µM

C[C@H]1O[C@H](O[C@H]2[C@H](O)[C@@H](O)[C@@H](O[C@H]3[C@H](O)[C@@H](O)C(O)O[C@@H]3CO)O[C@@H]2CO)[C@H](O)[C@@H](O)[C@@H]1N[C@H]1C=C(CO)[C@@H](O)[C@H](O)[C@H]1O (stereo partly shown) [Acarbose]
time at which plasma glucose returned to basal (Sprague-Dawley rats): 90 min
15 minute glucose excursion from basal (Sprague-Dawley rats; mean ± SE, n=6): 34.2 ± 3.5 mg/dL
decrease of the 90 minute insulin AUC (Sprague-Dawley rats; versus Control): 49%
inhibition at 5 µM ([4]; 5 μM concentration, COS cell extracts containing MGA, read-out: percent inhibition of the breakdown of maltose): 4%

O=S(=O)(O)OC(C(O)CN1CC(O)C(O)C1CO)C(O)C(O)CO (single isomer, unassigned) [Compound 193]
Ki [5]: 26 µM

O=S(=O)([O-])O[C@@H]([C@H](O)[C@@H](O)CO)[C@H](O)C[S@+]1C[C@@H](O)[C@H](O)[C@H]1CO [Compound 96, 1,4-Dideoxy-1,4-[[2S,3S,4R,5S-2,4,5,6-tetrahydroxy-3-(sulfooxy)hexyl]episufonium-ylidene]-D-arabinitol]
inhibitory activity against recombinant human MGA (in words) [5]: active

O=S(=O)([O-])O[C@@H](CO)[C@H](O)C[S@+]1C[C@@H](O)[C@@H](O)[C@H]1CO [Compound 233, 1,4-Dideoxy-1,4-[[(2S,3S)-2,4-dihydroxy-3-(sulfooxy)butyl]-(S)-episulfoniumylidene]-D-lyxitol Inner Salt]
inhibitory activity against recombinant human MGA (in words) [5]: not effective inhibitors

O=S(=O)([O-])O[C@H]([C@H](O)[C@@H](O)CO)[C@H](O)C[S@+]1C[C@@H](O)[C@H](O)[C@H]1CO [Compound 95, 1,4-Dideoxy-1,4-[[2S,3R,4R,5S-2,4,5,6-tetrahydroxy-3-(sulfooxy)hexyl]episufonium-ylidene]-D-arabinitol]
inhibitory activity against recombinant human MGA (in words) [5]: active

O=S(=O)([O-])O[C@H](CO)[C@@H](O)C[Se@+]1C[C@@H](O)[C@H](O)[C@H]1CO
Ki ([1]; read-out: Ki GA (Glucoamylase)): > 9000 µM
Ki [2]: > 5000 µM
Ki [3]: > 5000 µM

O=S(=O)([O-])O[C@H](CO)[C@@H](O)C[S@+]1C[C@@H](O)[C@H](O)[C@H]1CO
Ki [1]: 1060 µM
Ki [2, 6]: > 5000 µM
Ki [3, 7]: > 5000 µM

O=S(=O)(O)OC(C(O)CN1CC(O)C(O)C1CO)C(O)C(O)CO (single isomer, unassigned) [Compound 196]
Ki [5]: 5 µM

O=S(=O)([O-])OC(C(O)C[S+]1CC(O)C(O)C1CO)C(O)C(O)CO [Compound 192, 1,4-Dideoxy-1,4-[[(2R,3S,4R,5R)-2,4,5,6-tetrahydroxy-3-(sulfooxy)hexyl]-episulfoniumylidene]-D-arabinitol Inner Salt]
inhibitory activity against recombinant human MGA (in words) [5]: not active

O=S(=O)([O-])O[C@@H]([C@H](O)C[S@+]1C[C@@H](O)[C@H](O)[C@H]1CO)[C@@H](O)CO [Compound 94, 1,4-Dideoxy-1,4-[[2S,3R,4S-2,4,5-trihydroxy-3-(sulfooxy)pentyl]episufonium-ylidene]-D-arabinitol]
inhibitory activity against recombinant human MGA (in words) [5]: did not inhibit

O=S(=O)([O-])O[C@H](CO)[C@@H](O)C[S@@+]1C[C@H](O)[C@@H](O)[C@@H]1CO
Ki [1]: 2170 µM
Ki [2, 6]: > 5000 µM
Ki [3, 7]: > 5000 µM

OC1C[S+]2CCCC2[C@@H](O)C1O (stereo partly shown)
Ki ([1]; read-out: Ki GA (Glucoamylase)): 1320 µM
Ki [2, 6]: > 5000 µM
Ki [3, 7]: > 5000 µM

O=S(=O)(O)OC(C(O)CN1CC(O)C(O)C1CO)C(O)C(O)CO (single isomer, unassigned) [Compound 255]
IC50 [5]: 30 µM

O=S(=O)([O-])O[C@@H]([C@H](O)CO)[C@H](O)C[S@+]1C[C@@H](O)[C@H](O)[C@H]1CO [Compound 97, 1,4-Dideoxy-1,4-[[2S,3S,4R-2,4,5-trihydroxy-3-(sulfooxy)pentyl]episufonium-ylidene]-D-arabinitol]
Ki [5]: 0.17 µM
